Laboratory results from patent publication US9149475B2, “Protein kinase C inhibitors and uses thereof” (Rigel Pharmaceuticals, Inc., priority 2009, dated 2015).
pIC50: −log10 of the molar value.

Test system: Human primary T cells
Experiment: IL-2 ELISA, human primary T cell, anti-CD3+CD28+ (whole cell assay)
Assay type: cell-based
Conditions: Homo sapiens, T-cell, 24 h, human primary T cells stimulated with anti-CD3 + anti-CD28, 24 hours
In short: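 PBMC-derived T cells, pre-expanded on αCD3/αCD28 with IL-2 and then washed free of IL-2, were preincubated with compound for 1 hr at 37° C (100,000 cells/well). They were then stimulated on 1 μg/ml αCD3 plus 5 μg/ml αCD28 for 24 h, and supernatant IL-2 was measured by ELISA. The counter-assay used 0.5 ng/ml PMA plus 0.1 μM ionomycin instead.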

Row | pIC50 | SMILES
1 | 6.00 to 6.30 | CC(C)N1CCC(Oc2ccc(Nc3ncc(F)c(NC4CC(C)(C)NC(C)(C)C4)n3)cc2OC(F)F)C(F)(F)C1 (stereo not drawn) [III-108, N2-(4-(3,3-difluoro-1-isopropylpiperidin-4-yloxy)-3-(difluoromethoxy)phenyl)-5-fluoro-N4-(2,2,6,6-tetramethylpiperidin-4-yl)pyrimidine-2,4-diamine]
2 | 6.00 to 6.30 | CC1(C)CC(Nc2nc(Nc3ccc(OC4CCOCC4)c(F)c3)ncc2F)CC(C)(C)N1 [III-109, 5-fluoro-N2-(3-fluoro-4-(tetrahydro-2H-pyran-4-yloxy)phenyl)-N4-(2,2,6,6-tetramethylpiperidin-4-yl)pyrimidine-2,4-diamine]
3 | > 6.60 | [2H]C([2H])([2H])N1C(C)(C)CC(Nc2nc(Nc3ccc(OC4CCN(C(C)C)CC4)c(OC(F)F)c3)ncc2F)CC1(C)C [III-110, N2-(3-(difluoromethoxy)-4-(1-isopropylpiperidin-4-yloxy)phenyl)-5-fluoro-N4-(1-trideuteromethyl-2,2,6,6-tetramethylpiperidin-4-yl)pyrimidine-2,4-diamine]
4 | > 6.60 | [2H]C([2H])([2H])N1C(C)(C)CC(Nc2nc(Nc3ccc(OC4CCN(C(C)C)CC4)c(Cl)c3)ncc2F)CC1(C)C [III-111, N2-(3-(chloro)-4-(1-isopropylpiperidin-4-yloxy)phenyl)-5-fluoro-N4-(1-trideuteromethyl-2,2,6,6-tetramethylpiperidin-4-yl)pyrimidine-2,4-diamine]
5 | 6.30 to 6.60 | [2H]C([2H])([2H])N1C(C)(C)CC(Nc2nc(Nc3ccc(OC4CCN(C(C)C)CC4F)c(OC(F)F)c3)ncc2F)CC1(C)C (stereo not drawn) [III-112, N2-(3-(difluoromethoxy)-4-(3-fluoro-1-isopropylpiperidin-4-yloxy)phenyl)-5-fluoro-N4-(1-trideuteromethyl-2,2,6,6-tetramethylpiperidin-4-yl)pyrimidine-2,4-diamine]
6 | > 6.60 | [2H]C([2H])([2H])N1C(C)(C)CC(Nc2nc(Nc3ccc(C)c(-n4cnnn4)c3)ncc2F)CC1(C)C [III-113, 5-fluoro-N2-(4-methyl-3-(1H-tetrazol-1-yl)phenyl)-N4-(1-trideuteromethyl-2,2,6,6-tetramethylpiperidin-4-yl)pyrimidine-2,4-diamine]
7 | > 6.60 | [2H]C([2H])([2H])N1C(C)(C)CC(Nc2nc(Nc3cccc(-n4cnnn4)c3)ncc2F)CC1(C)C [III-114, 5-fluoro-N2-(3-(1H-tetrazol-1-yl)phenyl)-N4-(1-trideuteromethyl-2,2,6,6-tetramethylpiperidin-4-yl)pyrimidine-2,4-diamine]
8 | > 6.60 | [2H]C([2H])([2H])N1C(C)(C)CC(Nc2nc(Nc3cccc(-n4nnnc4C)c3)ncc2F)CC1(C)C [III-115, 5-fluoro-N2-(3-(5-methyl-1H-tetrazol-1-yl)phenyl)-N4-(1-trideuteromethyl-2,2,6,6-tetramethylpiperidin-4-yl)pyrimidine-2,4-diamine]
9 | > 6.60 | CC1(C)CC(Nc2nc(Nc3cc(C4CC4)cc(-n4cnnn4)c3)ncc2F)CC(C)(C)N1 [III-116, N^2-(3-cyclopropyl-5-(1H-tetrazol-1-yl)phenyl)-5-fluoro-N^4(2,2,6,6-tetramethylpiperidin-4-yl)pyrimidine-2,4-diamine]
10 | > 6.60 | CN1C(C)(C)CC(Nc2nc(Nc3cc(C4CC4)cc(-n4cnnn4)c3)ncc2F)CC1(C)C [III-117, N^2-(3-cyclopropyl-5-(1H-tetrazol-1-yl)phenyl)-5-fluoro-N^4(1,2,2,6,6-pentamethylpiperidin-4-yl)pyrimidine-2,4-diamine]
11 | > 6.60 | CC1(C)CC(Nc2nc(Nc3ccc(C4CC4)c(-n4cnnn4)c3)ncc2F)CC(C)(C)N1 [III-118, N^2-(4-cyclopropyl-3-(1H-tetrazol-1-yl)phenyl)-5-fluoro-N^4(2,2,6,6-tetramethylpiperidin-4-yl)pyrimidine-2,4-diamine]
12 | > 6.60 | CN1C(C)(C)CC(Nc2nc(Nc3ccc(C4CC4)c(-n4cnnn4)c3)ncc2F)CC1(C)C [III-119, N^2-(4-cyclopropyl-3-(1H-tetrazol-1-yl)phenyl)-5-fluoro-N^4(1,2,2,6,6-pentamethylpiperidin-4-yl)pyrimidine-2,4-diamine]
